Measured values reported in ChEMBL document CHEMBL5614374, “Novel carbazole-oxadiazole derivatives as anti-α-glucosidase and anti-α-amylase agents: Design, synthesis, molecular docking, and biological evaluation” (Eur J Med Chem, 2024).
One block for each molecule: values may come before it. Active and inactive are the calls of the source. The rule behind the calls is not given here.

What was measured:
[1] = target: T1, Alpha-glucosidase (Saccharomyces cerevisiae S288c) (UniProt P53341+P38158+P07265); assay: Inhibition of alpha-glucosidase (unknown origin) assessed as increase in enzyme particle thickness at 1 uM incubated for 15 mins by AFM imaging analysis; format: protein assay
[2] = Cytotoxicity against HEK293 cells assessed as cell viability at 60 uM incubated for 1 day by MTT assay relative to control; format: toxicity, cell-based; conditions: human, read-out: Activity
Alpha-glucosidase [3] = target: T2, Alpha-glucosidase (Saccharomyces cerevisiae S288c, UniProt P53341+P38158+P07265); assay: Inhibition of Saccharomyces cerevisiae alpha-glucosidase using p-nitrophenyl-alpha-D-glucopyranoside as substrate assessed as inhibition constant of enzyme-substrate complex incubated for 7 mins by spectrophotometer based Lineweaver-Burk plot analysis; format: protein assay
Mus musculus [4] = assay: Reduction in blood glucose concentration in male Kunming mouse at 20 mg/kg, IG preadministered for 40 mins followed by saccharose addition and measured after 30 mins by sucrose loading test; format: functional, organism-based; conditions: time 70.0 min
[5] = target: T1, Alpha-glucosidase (Saccharomyces cerevisiae S288c); assay: Inhibition of alpha-glucosidase (unknown origin) assessed as effect on secondary structure by measuring beta-turn content at 30 uM by CD spectra (reference value: 17.1 %); format: protein assay; design: scale not given: the % may be the effect or the level left
[6] = target: T1, Alpha-glucosidase (Saccharomyces cerevisiae S288c); assay: Inhibition of alpha-glucosidase (unknown origin) assessed as increase in enzyme particle size at 1 uM incubated for 15 mins by AFM imaging analysis; format: protein assay
[7] = target: T1, Alpha-glucosidase (Saccharomyces cerevisiae S288c); assay: Inhibition of alpha-glucosidase (unknown origin) assessed as effect on secondary structure by measuring beta-sheet content at 30 uM by CD spectra (reference value: 18.1 %); format: protein assay; design: scale not given: the % may be the effect or the level left
[8] = target: T1, Alpha-glucosidase (Saccharomyces cerevisiae S288c); assay: Mixed-type inhibition of Saccharomyces cerevisiae alpha-glucosidase using p-nitrophenyl-alpha-D-glucopyranoside as substrate assessed as decrease in Km and Vmax upto 20 uM incubated for 7 mins by spectrophotometer based Lineweaver-Burk plot analysis; format: protein assay
[9] = target: T1, Alpha-glucosidase (Saccharomyces cerevisiae S288c); assay: Inhibition of alpha-glucosidase (unknown origin) assessed as effect on secondary structure by measuring beta-turn content at 20 uM by CD spectra (reference value: 17.1 %); format: protein assay; design: scale not given: the % may be the effect or the level left
Mus musculus [10] = assay: Reduction in blood glucose concentration in male Kunming mouse assessed as decrease in AUC at 20 mg/kg, IG preadministered for 40 mins followed by saccharose addition and measured after 150 mins by sucrose loading test relative to control; format: functional; design: scale not given: the % may be the effect or the level left; conditions: time 190 min, 3.167 h
[11] = target: T1, Alpha-glucosidase (Saccharomyces cerevisiae S288c); assay: Inhibition of alpha-glucosidase (unknown origin) assessed as effect on secondary structure by measuring reduction in alpha-helix content at 30 uM by CD spectra (reference value: 32.1 %); format: protein assay; design: scale not given: the % may be the effect or the level left; conditions: Homo sapiens
[12] = target: T1, Alpha-glucosidase (Saccharomyces cerevisiae S288c); assay: Inhibition of alpha-glucosidase (unknown origin) assessed as effect on secondary structure by measuring reduction in alpha-helix content at 10 uM by CD spectra (reference value: 32.1 %); format: protein assay; design: scale not given: the % may be the effect or the level left; conditions: Homo sapiens
[13] = target: T1, Alpha-glucosidase (Saccharomyces cerevisiae S288c); assay: Inhibition of alpha-glucosidase (unknown origin) assessed as effect on secondary structure by measuring beta-sheet content at 20 uM by CD spectra (reference value: 18.1 %); format: protein assay; design: scale not given: the % may be the effect or the level left
[14] = target: T1, Alpha-glucosidase (Saccharomyces cerevisiae S288c); assay: Inhibition of alpha-glucosidase (unknown origin) assessed as effect on secondary structure by measuring random coil content at 5 uM by CD spectra (reference value: 33.1 %); format: protein assay; design: scale not given: the % may be the effect or the level left; conditions: Homo sapiens
[15] = target: T1, Alpha-glucosidase (Saccharomyces cerevisiae S288c); assay: Inhibition of alpha-glucosidase (unknown origin) assessed as effect on secondary structure by measuring reduction in alpha-helix content at 20 uM by CD spectra (reference value: 32.1 %); format: protein assay; design: scale not given: the % may be the effect or the level left; conditions: Homo sapiens
[16] = target: T1, Alpha-glucosidase (Saccharomyces cerevisiae S288c); assay: Inhibition of alpha-glucosidase (unknown origin) assessed as effect on secondary structure by measuring reduction in alpha-helix content at 5 uM by CD spectra (reference value: 32.1 %); format: protein assay; design: scale not given: the % may be the effect or the level left; conditions: Homo sapiens
[17] = target: T1, Alpha-glucosidase (Saccharomyces cerevisiae S288c); assay: Inhibition of alpha-glucosidase (unknown origin) assessed as effect on secondary structure by measuring beta-sheet content at 5 uM by CD spectra (reference value: 18.1 %); format: protein assay; design: scale not given: the % may be the effect or the level left
[18] = target: T1, Alpha-glucosidase (Saccharomyces cerevisiae S288c); assay: Inhibition of alpha-glucosidase (unknown origin) assessed as effect on secondary structure by measuring beta-turn content at 5 uM by CD spectra (reference value: 17.1 %); format: protein assay; design: scale not given: the % may be the effect or the level left; conditions: Homo sapiens
[19] = target: T1, Alpha-glucosidase (Saccharomyces cerevisiae S288c); assay: Inhibition of alpha-glucosidase (unknown origin) assessed as effect on secondary structure by measuring random coil content at 10 uM by CD spectra (reference value: 33.1 %); format: protein assay; design: scale not given: the % may be the effect or the level left; conditions: Homo sapiens
Alpha-amylase = target: T3, Alpha-amylase (Sus scrofa domesticus, UniProt Q7M328); assay: Inhibition of hog pancreatic alpha-amylase using soluble starch as substrate preincubated for 10 mins followed by substrate addition and measured after 15 mins by absorbance based analysis
T3 sequence (Q7M328 whole entry): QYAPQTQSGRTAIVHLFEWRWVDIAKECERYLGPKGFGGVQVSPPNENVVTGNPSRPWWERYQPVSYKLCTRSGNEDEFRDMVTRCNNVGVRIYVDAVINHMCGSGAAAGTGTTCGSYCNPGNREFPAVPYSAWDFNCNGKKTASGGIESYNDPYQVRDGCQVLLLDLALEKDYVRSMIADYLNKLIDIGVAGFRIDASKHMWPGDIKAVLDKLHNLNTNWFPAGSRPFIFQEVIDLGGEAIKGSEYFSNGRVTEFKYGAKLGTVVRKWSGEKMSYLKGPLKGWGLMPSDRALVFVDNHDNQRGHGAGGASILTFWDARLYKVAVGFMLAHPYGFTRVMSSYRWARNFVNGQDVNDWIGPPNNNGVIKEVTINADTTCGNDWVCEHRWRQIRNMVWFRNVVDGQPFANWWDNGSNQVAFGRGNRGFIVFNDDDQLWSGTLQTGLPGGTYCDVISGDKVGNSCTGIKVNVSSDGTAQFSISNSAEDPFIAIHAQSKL

[20] = target: T1, Alpha-glucosidase (Saccharomyces cerevisiae S288c); assay: Inhibition of alpha-glucosidase (unknown origin) assessed as effect on secondary structure by measuring beta-turn content at 10 uM by CD spectra (reference value: 17.1 %); format: protein assay; design: scale not given: the % may be the effect or the level left
[21] = target: T1, Alpha-glucosidase (Saccharomyces cerevisiae S288c); assay: Inhibition of alpha-glucosidase (unknown origin) assessed as effect on secondary structure by measuring beta-sheet content at 10 uM by CD spectra (reference value: 18.1 %); format: protein assay; design: scale not given: the % may be the effect or the level left
[22] = Cytotoxicity against HEK293 cells incubated for 1 day by MTT assay; format: toxicity, cell-based; conditions: human
[23] = target: T1, Alpha-glucosidase (Saccharomyces cerevisiae S288c); assay: Inhibition of alpha-glucosidase (unknown origin) assessed as effect on secondary structure by measuring random coil content at 20 uM by CD spectra (reference value: 33.1 %); format: protein assay; design: scale not given: the % may be the effect or the level left
[24] = target: T1, Alpha-glucosidase (Saccharomyces cerevisiae S288c); assay: Inhibition of alpha-glucosidase (unknown origin) assessed as effect on secondary structure by measuring random coil content at 30 uM by CD spectra (reference value: 33.1 %); format: protein assay; design: scale not given: the % may be the effect or the level left; conditions: Homo sapiens
Alpha-glucosidase [25] = target: T2, Alpha-glucosidase; assay: Inhibition of Saccharomyces cerevisiae alpha-glucosidase using p-nitrophenyl-alpha-D-glucopyranoside as substrate preincubated for 0.25 hrs followed by substrate addition and measured after 0.5 hrs by spectrophotometric analysis; format: protein assay

inhibition [1]: Active
Ki (Alpha-glucosidase [3]): 13.19 µM
Activity [5]: 18.5%
inhibition [6]: Active
Activity [7]: 22.9%
inhibition [8]: Active
Activity [9]: 18.4%
Activity [11]: 25.1%
Activity [12]: 28.5%
Activity [13]: 22.4%
Activity [14]: 35.3%
Activity [15]: 25.7%
Activity [16]: 28.9%
Activity [17]: 20%
Activity [18]: 17.7%
Activity [19]: 36.1%
IC50 (Alpha-amylase): 61.5 µM
Activity [20]: 17.8%
Activity [21]: 20.3%
Activity [23]: 38.1%
Activity [24]: 38.8%
IC50 (Alpha-glucosidase [25]): 21.39 µM
SMILES: CCOc1ccc(NC(=O)CSc2nnc(CCn3c4ccccc4c4ccccc43)o2)cc1
viability at 24 h, 60 µM [2]: 96.1%
Activity (Mus musculus [4]): Active
Activity (Mus musculus [10]): 11.74%
IC50 at 1 day [22]: 193 µM

IC50 (Alpha-amylase): 83.2 µM
IC50 (Alpha-glucosidase [25]): 22.07 µM
SMILES: O=C(CSc1nnc(CCn2c3ccccc3c3ccccc32)o1)Nc1ccc(Cl)cc1

IC50 (Alpha-amylase): 56.2 µM
IC50 (Alpha-glucosidase [25]): 43.26 µM
SMILES: O=C(CSc1nnc(CCn2c3ccccc3c3ccccc32)o1)Nc1ccccc1

IC50 (Alpha-amylase): 126 µM
IC50 (Alpha-glucosidase [25]): 80.64 µM
SMILES: Cc1ccc(NC(=O)CSc2nnc(CCn3c4ccccc4c4ccccc43)o2)cc1

SMILES: C[C@H]1O[C@H](O[C@H]2[C@H](O)[C@@H](O)[C@@H](O[C@H]3[C@H](O)[C@@H](O)C(O)O[C@@H]3CO)O[C@@H]2CO)[C@H](O)[C@@H](O)[C@@H]1N[C@H]1C=C(CO)[C@@H](O)[C@H](O)[C@H]1O (stereo partly drawn) [ACARBOSE]
Activity (Mus musculus [4]): Active
Activity (Mus musculus [10]): 28.57%

IC50 (Alpha-amylase): 74.8 µM
IC50 (Alpha-glucosidase [25]): 39.52 µM
SMILES: O=C(CSc1nnc(CCn2c3ccccc3c3ccccc32)o1)Nc1ccc(Oc2ccccc2)cc1

IC50 (Alpha-amylase): 86.3 µM
IC50 (Alpha-glucosidase [25]): 22.22 µM
SMILES: O=C(CSc1nnc(CCn2c3ccccc3c3ccccc32)o1)Nc1ccc([N+](=O)[O-])cc1
